Source: ChEMBL document CHEMBL4480396 (Eur J Med Chem, 2019)
Active and inactive are the calls of the source. The rule behind the calls is not given here.

Key:
MGC-803 [1] = assay: Cell cycle arrest in human MGC803 cells assessed as accumulation at G2/M-phase at 90 nM measured after 48 hrs by propidium iodide staining based flow cytometry relative to control; assay type: functional
MGC-803 [2] = assay: Induction of apoptosis in human MGC803 cells assessed as viable cells at 90 nM after 48 hrs by Annexin V-FITC/propidium iodide staining based flow cytometry (reference value: 94.9%); assay type: functional; conditions: MGC-803, 48 h, read-out: Activity
MGC-803 [3] = assay: Antiproliferative activity against human MGC803 cells assessed as cell viability at 30 nM measured after 7 days by crystal violet staining based assay relative to control; assay type: functional; conditions: MGC-803, 168 h, read-out: Activity
[4] = target: T1, Cyclin-dependent kinase 1/cyclin B1 (Homo sapiens) (UniProt P06493+P14635); assay: Effect on CDK1-cyclin B1 protein-protein interaction in human MGC803 cells assessed as change in CDK1 expression at 30 to 90 nM measured after 48 hrs by immunoprecipitation based Western blot analysis; assay type: cell-based
Tubulin = assay: Inhibition of tubulin (unknown origin) polymerization measured every minute by spectrophotometric method; assay type: protein-complex assay, Homo sapiens
MGC-803 [5] = assay: Down regulation of CDK1 expression in human MGC803 cells by Western blot analysis; assay type: functional, cell-based
[6] = target: Cyclin-dependent kinase 1 (Homo sapiens) (UniProt P06493); assay: Effect on CDK1 phosphorylation at Tyr15 residues in human MGC803 cells at 30 to 90 nM by Western blot analysis; assay type: cell-based
MGC-803 [7] = assay: Induction of apoptosis in human MGC803 cells assessed as up regulation of cleaved PARP expression at 30 to 90 nM after 48 hrs by Western blot analysis; assay type: functional, cell-based
MGC-803 [8] = assay: Induction of apoptosis in human MGC803 cells assessed as necrotic cells at 30 nM after 48 hrs by Annexin V-FITC/propidium iodide staining based flow cytometry (reference value: 0.3%); assay type: functional
MGC-803 [9] = assay: Antiproliferative activity against human MGC803 cells assessed as cell viability at 120 nM measured after 7 days by crystal violet staining based assay relative to control; assay type: functional; conditions: MGC-803, 168 h, read-out: Activity
PC-3 = assay: Antiproliferative activity against human PC3 cells measured after 48 hrs by MTT assay; assay type: functional, cell-based; conditions: PC-3, 48 h
MGC-803 [10] = assay: Induction of apoptosis in human MGC803 cells assessed as viable cells at 60 nM after 48 hrs by Annexin V-FITC/propidium iodide staining based flow cytometry (reference value: 94.9%); assay type: functional; conditions: MGC-803, 48 h, read-out: Activity
MGC-803 [11] = assay: Induction of apoptosis in human MGC803 cells assessed as late apoptotic cells at 30 nM after 48 hrs by Annexin V-FITC/propidium iodide staining based flow cytometry (reference value: 2.9%); assay type: functional
MGC-803 [12] = assay: Cell cycle arrest in human MGC803 cells assessed as decrease in accumulation at G1-phase at 30 to 90 nM measured after 48 hrs by propidium iodide staining based flow cytometry; assay type: functional
MGC-803 [13] = assay: Induction of apoptosis in human MGC803 cells assessed as necrotic cells at 90 nM after 48 hrs by Annexin V-FITC/propidium iodide staining based flow cytometry (reference value: 0.3%); assay type: functional
MGC-803 [14] = assay: Cell cycle arrest in human MGC803 cells assessed as decrease in accumulation at S-phase at 30 to 90 nM measured after 48 hrs by propidium iodide staining based flow cytometry; assay type: functional
MGC-803 [15] = assay: Induction of apoptosis in human MGC803 cells assessed as late apoptotic cells at 60 nM after 48 hrs by Annexin V-FITC/propidium iodide staining based flow cytometry (reference value: 2.9%); assay type: functional
MGC-803 [16] = assay: Induction of apoptosis in human MGC803 cells assessed as up regulation of Bax expression at 30 to 90 nM after 48 hrs by Western blot analysis; assay type: functional, cell-based
Tubulin (Homo sapiens) = Tubulin (Homo sapiens) (UniProt P68371+Q9H4B7+P0DPH7+P68366+Q13509+Q71U36+P04350+Q3ZCM7+P07437+P68363+Q9BQE3+Q6PEY2+Q13885+Q9BVA1+Q9BUF5); assay: Induction of microtubule depolymerization in human MGC803 cells at 60 to 90 nM measured after 48 hrs by DAPI staining based laser confocal microscopic analysis; assay type: cell-based
MGC-803 [17] = assay: Induction of apoptosis in human MGC803 cells after 48 hrs by Annexin V-FITC/propidium iodide staining based flow cytometry; assay type: functional, cell-based
MGC-803 [18] = assay: Induction of apoptosis in human MGC803 cells assessed as down regulation of XIAP expression after 48 hrs by Western blot analysis; assay type: functional, cell-based
MGC-803 [19] = assay: Up regulation of CDC25C expression in human MGC803 cells at 30 to 90 nM by Western blot analysis; assay type: functional, cell-based
MGC-803 [20] = assay: Induction of apoptosis in human MGC803 cells assessed as early apoptotic cells at 60 nM after 48 hrs by Annexin V-FITC/propidium iodide staining based flow cytometry (reference value: 1.9%); assay type: functional
MGC-803 [21] = assay: Induction of apoptosis in human MGC803 cells assessed as early apoptotic cells at 90 nM after 48 hrs by Annexin V-FITC/propidium iodide staining based flow cytometry (reference value: 1.9%); assay type: functional
MGC-803 [22] = assay: Induction of apoptosis in human MGC803 cells assessed as down regulation of Bcl-xl expression after 48 hrs by Western blot analysis; assay type: functional, cell-based
MGC-803 [23] = assay: Induction of apoptosis in human MGC803 cells assessed as viable cells at 30 nM after 48 hrs by Annexin V-FITC/propidium iodide staining based flow cytometry (reference value: 94.9%); assay type: functional; conditions: MGC-803, 48 h, read-out: Activity
MGC-803 [24] = assay: Down regulation of CDK1 expression in human MGC803 cells at 30 to 90 nM in presence of proteasome inhibitor MG132 by Western blot analysis; assay type: functional, cell-based
MGC-803 [25] = assay: Antiproliferative activity against human MGC803 cells assessed as cell viability at 90 nM measured after 7 days by crystal violet staining based assay relative to control; assay type: functional; conditions: MGC-803, 168 h, read-out: Activity
HepG2 = assay: Antiproliferative activity against human HepG2 cells measured after 48 hrs by MTT assay; assay type: functional, cell-based; conditions: HepG2, 48 h
MGC-803 [26] = assay: Induction of apoptosis in human MGC803 cells assessed as up regulation of DR5 expression at 30 to 90 nM after 48 hrs by Western blot analysis; assay type: functional, cell-based
MGC-803 [27] = assay: Induction of apoptosis in human MGC803 cells assessed as late apoptotic cells at 90 nM after 48 hrs by Annexin V-FITC/propidium iodide staining based flow cytometry (reference value: 2.9%); assay type: functional
MGC-803 [28] = assay: Inhibition of colony formation in human MGC803 cells after 7 days by crystal violet staining based assay; assay type: functional, cell-based
MGC-803 [29] = assay: Antiproliferative activity against human MGC803 cells assessed as cell viability at 60 nM measured after 7 days by crystal violet staining based assay relative to control; assay type: functional; conditions: MGC-803, 168 h, read-out: Activity
MGC-803 [30] = assay: Induction of apoptosis in human MGC803 cells assessed as early apoptotic cells at 30 nM after 48 hrs by Annexin V-FITC/propidium iodide staining based flow cytometry (reference value: 1.9%); assay type: functional
MGC-803 [31] = assay: Induction of apoptosis in human MGC803 cells assessed as necrotic cells at 60 nM after 48 hrs by Annexin V-FITC/propidium iodide staining based flow cytometry (reference value: 0.3%); assay type: functional
MGC-803 [32] = assay: Cell cycle arrest in human MGC803 cells assessed as accumulation at G2/M-phase measured after 48 hrs by propidium iodide staining based flow cytometry; assay type: functional
[33] = target: Tubulin beta (Homo sapiens) (UniProt P68371+Q9H4B7+Q13509+P04350+Q3ZCM7+P07437+Q13885+Q9BVA1+Q9BUF5+A6NNZ2); assay: Inhibition of EBI binding to beta-tubulin colchicine binding site in human MGC803 cells at 0.4 to 4 uM preincubated for 2 hrs followed by EBI addition and measured after 2 hrs by Western blot analysis; assay type: cell-based
[34] = target: T1, Cyclin-dependent kinase 1/cyclin B1 (Homo sapiens); assay: Effect on CDK1-cyclin B1 protein-protein interaction in human MGC803 cells assessed as change in cyclin B1 expression at 30 to 90 nM measured after 48 hrs by immunoprecipitation based Western blot analysis; assay type: cell-based
MGC-803 [35] = assay: Antiproliferative activity against human MGC803 cells measured after 48 hrs by MTT assay; assay type: functional, cell-based; conditions: MGC-803, 48 h

T1 sequence (P06493 whole entry, looked up): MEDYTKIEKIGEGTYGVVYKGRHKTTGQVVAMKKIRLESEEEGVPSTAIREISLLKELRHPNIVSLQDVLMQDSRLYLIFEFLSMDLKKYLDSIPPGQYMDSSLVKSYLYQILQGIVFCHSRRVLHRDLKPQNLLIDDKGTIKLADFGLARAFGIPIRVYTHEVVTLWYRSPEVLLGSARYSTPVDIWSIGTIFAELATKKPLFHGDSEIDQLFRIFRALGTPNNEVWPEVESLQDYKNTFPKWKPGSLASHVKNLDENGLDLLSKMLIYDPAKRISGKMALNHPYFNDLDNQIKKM
T1 sequence (P14635 whole entry, looked up): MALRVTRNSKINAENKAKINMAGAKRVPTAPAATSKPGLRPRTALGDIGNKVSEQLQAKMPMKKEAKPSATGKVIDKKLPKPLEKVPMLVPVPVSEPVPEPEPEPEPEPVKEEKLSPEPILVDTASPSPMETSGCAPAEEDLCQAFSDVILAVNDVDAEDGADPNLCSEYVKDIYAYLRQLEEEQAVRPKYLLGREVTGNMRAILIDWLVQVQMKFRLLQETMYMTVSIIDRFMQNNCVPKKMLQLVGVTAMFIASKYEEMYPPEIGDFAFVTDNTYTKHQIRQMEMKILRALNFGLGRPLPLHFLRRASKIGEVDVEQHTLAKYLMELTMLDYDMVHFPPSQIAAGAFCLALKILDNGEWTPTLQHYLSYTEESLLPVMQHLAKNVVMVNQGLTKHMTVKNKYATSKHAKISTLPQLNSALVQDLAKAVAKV
Cyclin-dependent kinase 1 (Homo sapiens), sequence (P06493 whole entry, looked up): as the sequence (P06493 whole entry, looked up) above

COc1ccc(CN(C(=O)Cn2cc(COc3ccc4c(C)cc(=O)oc4c3)nn2)c2cc(OC)c(OC)c(OC)c2)cc1
Activity (MGC-803 [1]): Active | viability at 0.09 µM (MGC-803 [2]): 37.9% | viability at 0.03 µM (MGC-803 [3]): 85.9% | Activity [4]: inactive | IC50 (Tubulin): 2.16 µM | Activity (MGC-803 [5]): Dose-dependent effect | Activity [6]: inactive | Activity (MGC-803 [7]): Active | Activity (MGC-803 [8]): 0.2% | viability at 0.12 µM (MGC-803 [9]): 16% | IC50 (PC-3): 0.34 µM | viability at 0.06 µM (MGC-803 [10]): 92.1% | Activity (MGC-803 [11]): 3.1% | Activity (MGC-803 [12]): Active | Activity (MGC-803 [13]): 0.4% | Activity (MGC-803 [14]): Active | Activity (MGC-803 [15]): 4.5% | Activity (MGC-803 [16]): Active | Activity (Tubulin (Homo sapiens)): Active | Activity (MGC-803 [17]): Dose-dependent effect | Activity (MGC-803 [18]): Dose-dependent effect | Activity (MGC-803 [19]): inactive | Activity (MGC-803 [20]): 3.1% | Activity (MGC-803 [21]): 25% | Activity (MGC-803 [22]): Dose-dependent effect | viability at 0.03 µM (MGC-803 [23]): 94.5% | Activity (MGC-803 [24]): Active | viability at 0.09 µM (MGC-803 [25]): 31.8% | IC50 (HepG2): 1.74 µM | Activity (MGC-803 [26]): Active | Activity (MGC-803 [27]): 36.8% | inhibition (MGC-803 [28]): Dose-dependent effect | viability at 0.06 µM (MGC-803 [29]): 62.6% | Activity (MGC-803 [30]): 2.1% | Activity (MGC-803 [31]): 0.3% | Activity (MGC-803 [32]): Dose-dependent effect | inhibition [33]: Active | Activity [34]: inactive | IC50 (MGC-803 [35]): 0.13 µM

COc1ccc(CN(C(=O)Cn2cc(Cn3ccc4ccccc43)nn2)c2cc(OC)c(OC)c(OC)c2)cc1
IC50 (PC-3): 2.39 µM | IC50 (HepG2): 40.1 µM | IC50 (MGC-803 [35]): 42.6 µM

COc1ccc(CN(C(=O)Cn2cc(CN3c4ccccc4Sc4ccc(C(F)(F)F)cc43)nn2)c2cc(OC)c(OC)c(OC)c2)cc1
IC50 (PC-3): > 80 µM | IC50 (HepG2): > 80 µM | IC50 (MGC-803 [35]): > 80 µM

COc1ccc(CN(C(=O)Cn2cc(CSc3nc4ccccc4s3)nn2)c2cc(OC)c(OC)c(OC)c2)cc1
IC50 (PC-3): 28.4 µM | IC50 (HepG2): 49.2 µM | IC50 (MGC-803 [35]): 0.48 µM

COc1ccc(CN(C(=O)Cn2cc(CN3c4ccccc4Sc4ccccc43)nn2)c2cc(OC)c(OC)c(OC)c2)cc1
IC50 (PC-3): > 80 µM | IC50 (HepG2): > 80 µM | IC50 (MGC-803 [35]): > 80 µM
